From US20230158005A1 (priority 2020, published 2023)
“And” between values parts separate entries of the source, which are not always exact repeats. Equal entries are not always repeated.

Assays:
[1] = tested on: A/Minnesota/19/2011 (H1N1); assay type: cell-based, influenza A virus
[2] = tested on: A/New Jersey/8/1976 (H1N1); assay type: cell-based, influenza A virus
[3] = tested on: A/Solomon Islands/03/2006 (H1N1); assay type: cell-based, influenza A virus
[4] = tested on: A/Texas/71/2007 (H3N2); assay type: cell-based, influenza A virus
[5] = tested on: A/Perth/16/2009 (H3N2); assay type: cell-based, influenza A virus
[6] = tested on: A/Anhui/1/2013 (H7N9); assay type: cell-based, influenza A virus
[7] = tested on: A/Vietnam/1203/2004 (H5N1); assay type: cell-based, influenza A virus
[8] = tested on: A/Hawaii/15/2001 (H1N1); assay type: cell-based, influenza A virus; on Virus titer, replicates 1-3: test concentration or dose not given here
[9] = tested on: A/Fujian/413/2002 (H3N2); assay type: cell-based, influenza A virus
[10] = tested on: A549 human lung carcinoma cells
[11] = tested on: A/USSR/90/1977 (H1N1); assay type: cell-based, influenza A virus
[12] = tested on: A/California/07/2009 (H1N1); assay type: cell-based, influenza A virus
[13] = tested on: A/Indonesia/05/2005 (H5N1); assay type: cell-based, influenza A virus; on Virus titer, replicates 1-3: test concentration or dose not given here
[14] = tested on: A/Indiana/08/2011 (H3N2); assay type: cell-based, influenza A virus
[15] = tested on: A/Egypt/N6658/2011 (H5N1); assay type: cell-based, influenza A virus
[16] = tested on: A/Puerto Rico/8/1934 (H1N1); assay type: cell-based, influenza A virus
[17] = tested on: A/California/02/2014 (H3N2); assay type: cell-based, influenza A virus; on Virus titer, replicates 1-3: test concentration or dose not given here
[18] = tested on: A/Hong Kong/156/1997 (H5N1); assay type: cell-based, influenza A virus
[19] = tested on: A/New Caledonia/20/1999 (H1N1); assay type: cell-based, influenza A virus
[20] = tested on: A/Alaska/140/2015 (H3N2); assay type: cell-based, influenza A virus; on Virus titer, replicates 1-3: test concentration or dose not given here

## CCOC(=O)C1=C[C@@H](OC(CC)CC)[C@H](NC(C)=O)[C@@H](N)C1 [Oseltamivir, oseltamivir, reference compound]
[1]
  DIF (Difference from Control): -7.33 log10TCID50/mL
  Virus titer AVG: 1.50 log10TCID50/mL
  Virus titer, replicates 1-3: 1.50 log10TCID50/mL
[2]
  DIF (Difference from Control): -3.58 log10TCID50/mL
  Virus titer AVG: 1.50 log10TCID50/mL
  Virus titer, replicates 1-3: 1.50 log10TCID50/mL
[3]
  DIF (Difference from Control): -4.25 log10TCID50/mL
  Virus titer AVG: 3.25 log10TCID50/mL
  Virus titer, replicates 1-3: 3.75 log10TCID50/mL and 3.25 log10TCID50/mL and 2.75 log10TCID50/mL
[4]
  DIF (Difference from Control): -0.83 log10TCID50/mL
  Virus titer AVG: 4.00 log10TCID50/mL
  Virus titer, replicates 1-3: 3.50 log10TCID50/mL and 4.75 log10TCID50/mL and 3.75 log10TCID50/mL
[5]
  DIF (Difference from Control): 0.00 log10TCID50/mL
  Virus titer AVG: 4.25 log10TCID50/mL
  Virus titer, replicates 1-3: 4.25 log10TCID50/mL
[6]
  DIF (Difference from Control): -2.25 log10TCID50/mL
  Virus titer AVG: 1.50 log10TCID50/mL
  Virus titer, replicates 1-3: 1.50 log10TCID50/mL
[7]
  DIF (Difference from Control): -2.75 log10TCID50/mL
  Virus titer AVG: 5.17 log10TCID50/mL
  Virus titer, replicates 1-3: 5.25 log10TCID50/mL and 5.50 log10TCID50/mL and 4.75 log10TCID50/mL
[8]
  DIF (Difference from Control): -1.92 log10TCID50/mL
  Virus titer AVG: 2.67 log10TCID50/mL
  Virus titer, replicates 1-3: 2.75 log10TCID50/mL (2×) and 2.50 log10TCID50/mL
[9]
  DIF (Difference from Control): -0.58 log10TCID50/mL
  Virus titer AVG: 2.75 log10TCID50/mL
  Virus titer, replicates 1-3: 3.25 log10TCID50/mL and 2.50 log10TCID50/mL (2×)
[10]
  % Dif (absorbance as percent relative to the vehicle control, relative viability): 83.88%
[11]
  DIF (Difference from Control): -4.33 log10TCID50/mL
  Virus titer AVG: 2.42 log10TCID50/mL
  Virus titer, replicates 1-3: 2.50 log10TCID50/mL (2×) and 2.25 log10TCID50/mL
[12]
  DIF (Difference from Control): -3.00 log10TCID50/mL
  Virus titer AVG: 2.58 log10TCID50/mL
  Virus titer, replicates 1-3: 2.75 log10TCID50/mL and 2.50 log10TCID50/mL (2×)
[13]
  DIF (Difference from Control): -3.50 log10TCID50/mL
  Virus titer AVG: 4.58 log10TCID50/mL
  Virus titer, replicates 1-3: 4.75 log10TCID50/mL and 4.50 log10TCID50/mL (2×)
[14]
  DIF (Difference from Control): -5.08 log10TCID50/mL
  Virus titer AVG: 3.25 log10TCID50/mL
  Virus titer, replicates 1-3: 2.75 log10TCID50/mL and 3.75 log10TCID50/mL and 3.25 log10TCID50/mL
[15]
  DIF (Difference from Control): -3.25 log10TCID50/mL
  Virus titer AVG: 2.08 log10TCID50/mL
  Virus titer, replicates 1-3: 2.25 log10TCID50/mL and 1.50 log10TCID50/mL and 2.50 log10TCID50/mL
[16]
  DIF (Difference from Control): -2.25 log10TCID50/mL
  Virus titer AVG: 3.25 log10TCID50/mL
  Virus titer, replicates 1-3: 3.75 log10TCID50/mL and 3.25 log10TCID50/mL and 2.75 log10TCID50/mL
[17]
  DIF (Difference from Control): -1.58 log10TCID50/mL
  Virus titer AVG: 4.92 log10TCID50/mL
  Virus titer, replicates 1-3: 5.25 log10TCID50/mL and 4.75 log10TCID50/mL (2×)
[18]
  DIF (Difference from Control): -3.08 log10TCID50/mL
  Virus titer AVG: 1.50 log10TCID50/mL
  Virus titer, replicates 1-3: 1.50 log10TCID50/mL
[19]
  DIF (Difference from Control): -5.67 log10TCID50/mL
  Virus titer AVG: 1.50 log10TCID50/mL
  Virus titer, replicates 1-3: 1.50 log10TCID50/mL
[20]
  DIF (Difference from Control): -3.83 log10TCID50/mL
  Virus titer AVG: 2.92 log10TCID50/mL
  Virus titer, replicates 1-3: 2.50 log10TCID50/mL (2×) and 3.75 log10TCID50/mL
